Experimental data from patent US8895497B2, “Cathepsin S inhibitors” (DCB-USA, LLC, priority 2009, dated 2014).

What was measured:
A2058 melanoma cells = assay: In vivo assay, mice inoculated with A2058 melanoma cells; parameters: species or system BALB/cAnN-Foxn1nu/CrlNarl female mice
Description: BALB/cAnN-Foxn1nu/CrlNarl female mice were inoculated with A2058 melanoma cells. On day 7, 12 mice were treated i.v. with Compound 1 in DMSO (mg/kg) and 8 mice were treated with DMSO as control. The treatment was continued for 72 days. The mice were sacrificed and their lungs were weighted.

[1] = system: human A2058 melanoma cells; assay: Migration/invasion of A2058 melanoma cells; type: cell-based
Description: (§1) The cancer cell migration assay was performed in 96-wll-MultiScreen-MIC plates (Millipore) with 8 μm-pore-sized polycarbonate membrane. Briefly, highly-metastatic human lung adenocarcinoma CL1-5 cells were placed onto the upper chamber (2×10^4 cells/well) with tested compounds in complete medium (RPMI 1640 medium containing 1% FBS) and only medium placed onto the lower chamber. The chamber culture was incubated for 24 h at 37° C. and, then, the non-migrated cells were washed off the upper surface of the membrane. The migrated cells on the bottom side were dissociated with Cell Detachment Buffer (Chemicon, Inc.), lysed and stained for nucleic acids with CyQuant GR dye (Molecular Probes). The signal intensities were measured using a fluorescence reader (VICTORTIM 1420 Multilabel Counter, Wallac) at excitation wavelength of 485 nm and emission wavelength of 535 nm (1 sec). The result was presented as the average values from three independent experiments performed in duplicates.
(§2) Similarly, Compounds 1 and 118 were tested against human A2058 melanoma cells and pancreatic cancer cells.

pancreatic cancer cells = assay: Migration/invasion of pancreatic cancer cells; type: cell-based, human
Description: as §1, §2

| Compound | lung weights (A2058 melanoma cells; A2058 inoculated mice, i.v. in DMSO from day 7, treatment continued for 72 days, DMSO control 0.671 g) [g] | inhibition of cancer growth in A2058 inoculated mice (A2058 melanoma cells; i.v. in DMSO, 72 days) | inhibition of migratory and invasice abilities of A2058 melanoma cells [1] | inhibition of migratory and invasice abilities of pancreatic cancer cells (pancreatic cancer cells) |
| --- | --- | --- | --- | --- |
| CCOC(=O)CNC(=O)C(=O)[C@H](COCc1ccccc1)NC(=O)[C@H](CC(C)C)NC(=O)c1cccc2c1C(=O)c1ccccc1-2 (stereo in doubt) [Compound 1, Ethyl 2-(4-(benzyloxy)-3-[((2R)-4-methyl-2-[(9-oxo-9H-1-fluorenyl)carbonyl]aminopropanoyl)amino]-2-oxobutanoylamino)acetate] | 0.471 | effectively inhibited cancer growth | effectively inhibited migratory and invasice abilities |  |
| O=C(NCCC1CCCCC1)C(O)[C@H](CCc1ccccc1)NC(=O)[C@H](CC1CCCCC1)NC(=O)N1CCOCC1 (stereo partly shown) [Compound 118] |  |  |  | effective inhibited migratory and invasice abilities |
